From patent US10073097B2, “Diagnostic assays and methods of treating pneumonia, sepsis and systemic inflammatory response syndrome” (priority 2012, dated 2018)
Entries after “also recorded” stand apart in the source; their conditions may differ. Residues, ends and D or L forms follow the SMILES beside them. *: point of attachment. Cbz = O=C(OCc1ccccc1)*; CH2F = FC*

How the values were obtained:
peritoneal cells = assay: NDMP generation by peritoneal cells collected 24 H after TGA treatment, cultured with agonists or inhibitors; format: cell-based, mice; details: peritoneal cells 24 H after 3% TGA; for decrease in NDMP generation when compared to cells cultured without inhibitor: ML7 250 μM, Z-VAD-FMK 200 μM, Z-IETD-FMK 30 μM, flow cytometry; for NDMP numbers compared to cells cultured without agent: 8-Br-cAMP 100 μM, H89 20 μM, 6-Bnz-cAMP 100 μM, 8-CPT-2Me-cAMP 100 μM, Y27632 30 μM, PGE2 1 μM, 24 H
Experimental: Experimental Protocol. A biochemical pathway for NDMP formation was investigated. Specifically, proteins associated with F-actin were investigated, as F-actin rearrangement is a terminal step in apoptosis. The role of myosin light chain kinase (hereinafter “MLC K”) in NDMP generation was initially investigated. Peritoneal cells were isolated from peritoneal lavage 24 H after 1 mL 3% TGA injection. Peritoneal cells were cultured with one of the following agonists or inhibitors overnight in a CO2 incubator: 250 μM ML7, a MLCK inhibitor, (Tocris, Bristol, UK), 200 μM Z-VAD-FMK, a caspase 3 inhibitor, (Tocris), 30 μM Z-IETD-FMK, a caspase 8 inhibitor, (Tocris), or 30 μM Z-LEHD-FMK, or a caspase 9 inhibitor, (Tocris). Cells and MPs were collected 24 H following incubation and analyzed using flow cytometry as previously described.
Statistical comparisons were performed using Student t Test (two groups), or one-way ANOVA with Holm-Sidak post-hoc test (more than two groups) using StatView 3.5 (SAS Institute, Cary, N.C.). The mean and standard error of the mean were calculated in experiments containing multiple data points. A value of p≤0.05 was considered statistically significant.
Experimental Protocol. Elucidation of potential signaling pathways involved in NDMP formation was studied. Peritoneal cells were isolated from peritoneal lavage 24 H after 1 mL 3% TGA injection. […] Cells and MPs were collected 24 H following incubation and analyzed using flow cytometry as previously described.

C57BL/6 mice = assay: Intraperitoneal treatment of mice with TGA, LPS or PepG: peritoneal neutrophil recruitment and NDMP generation; format: in vivo; details: for neutrophil recruitment and NDMP generation/accumulation in the peritoneum: i.p. injection, peritoneal lavage 24 H after 3% TGA; for # NDMPs: peritoneal NDMPs after treatment; for # NDMPs / # Neuts: 3% TGA 1 mL i.p., PepG 1 mg i.p., LPS 100 μg i.p., CLP 75% ligation/23 gauge puncture; for # Neuts: peritoneal neutrophils after treatment
Experimental: Low-endotoxin NDMPs were generated and used to assess host response during sepsis. More specifically, mice were treated with intraperitoneal injections of 3% thioglycolate (hereinafter, “TGA”), LPS, or petidylglycan (hereinafter “PepG”). Peritoneal neutrophil recruitment, NDMPs, and endotoxin associated with NDMPs were quantified.
Experimental Protocol. The ability of TGA to generate microparticles in vivo was investigated. Male C57BL/6 mice between 6 and 8 weeks of age (about 20 to 28 g) were injected in the peritoneum with 1 mL 3% thioglycolate (Sigma, St. Louis, Mo.) or with vehicle. Peritoneal lavage was performed 24 H after injection. Peritoneal cells were pelleted after a 10-minute 450×g centrifugation. The supernatant was then centrifuged for 10 minutes at 9,900×g to remove platelets. The platelet-free supernatant was centrifuged for 20 minutes at 16,000×g in order to pellet MPs. The MP pellet was resuspended in 500 μL sterile PBS and centrifuged for 20 minutes at 16,000×g. The MP pellet was then resuspended in 100 μL sterile PBS for analysis.
Analysis of cell surface antigen expression was performed on peritoneal lavage fluid. Flow cytometry data acquisition and analysis were performed on an LSR II using FACS Diva software (BD Biosciences). Antibodies used included: Ly-6G (Clone: 1A8, BioLegend), LY-6C (Clone: AL-21, BD Biosciences), CD11b (Clone: M1/70, BioLegend), Ter-119 (Clone: Ter-119, BioLegend), CD41 (Clone: MWReg30, BioLegend), CD105 (Clone: MJ7/18, BioLegend), Annexin V (BioLegend), and counting beads (Invitrogen, Grand Island, N.Y.). As shown in FIG. 19(A), forward and side scatter flow cytometry were initially performed on the lavage to both characterize and enumerate microparticles. A gate was created using 0.3-1.1 μm beads to isolate the MPs in the sample.
Vehicle mice and TGA-treated mice were stained with neutrophil specific Ly6G and annexinV antibodies. Total NDMPs from TGA-treated mice and vehicle mice were then enumerated.

Mouse neutrophils = assay: NDMP generation by mouse bone marrow neutrophils treated with TNF-α with or without inhibitors; format: cell-based; details: for NDMPs after TNF-α plus caspase 8 inhibitor vs TNF-α alone: WT neutrophils, 25 ng/mL rhTNF-α (TNFr1) or rmTNF-α (TNFr1 and TNFr2)
Excerpt: Materials and Methods. Male C57BL/6 and TNFr1 KO (stock number: 003242) mice between 6 and 8 weeks of age were obtained from Jackson Labs (Bar Harbor, Me.). Mouse and human TNF-α Recombinant Protein (rmTNF-α and rhTNF-α, respectively) were purchased from Preprotech (Rocky Hill, N.J.). NF-κB inhibitor (BAY 11-7085) and Caspase 8 inhibitor (Z-IETD-FMK) were purchased from R&D systems (Minneapolis, Minn.). The pharmacological agents were solubilized in DMSO (American Bioanalytical, Natick, Mass.). The amount of DMSO was consistent in all samples groups. Neutrophil isolation. Mouse neutrophils from bone marrow were isolated from C57B1/6 mice as previously described. The femurs and tibias were flushed with Hanks' Balanced Salt Solution without calcium & Magnesium (HBSS) (Mediatech, Inc. Manassas, Va., USA). Bone marrow particulate was disaggregated and filtered in a 70 micron filter, then centrifuged at 400×g for 10 min at 23° C. The cells in the pellet were resuspended in HBSS, placed on a 55% Percoll gradient, and centrigued at 100×g for 30 min at 23° C. The pellet was washed once more. The final neutrophil preparation was re-suspended in HBSS. The purity and viability of the neutrophils (90% purity >99% viability, respectively) was determined by flow cytometry. Neutrophil purity was assessed by flow cytometry after cell staining with fluorescently conjugated antibodies to Ly-6G, CD19, CD3 and F4/80 with >99% of the cells negative for F4/80 and CD3. The main cell contaminant in this preparation was due to B cells. Further purification was not conducted by centriguation due to risk of non-specific neutrophil activation or by magnetic beads due to microparticle-sized contaminants introduced by the beads themselves.
Microparticle Generation and Analysis. Isolated neutrophils from bone marrow preparation were plated and cultured for the indicated time at 37° C. with stated treatments. The cell/micropartocle mixture was labeled for Ly-6G and Annexin V without manipulation as previously described. […] Neutrophil derived microparticle numbers were assessed using the neutrophil specific marker, Ly-6G (Clone: 1A8, BD Pharmingen, San Diego, Calif., United States); and Annexin V (BD Pharmingen). […]
Statistical Analysis. […] The mean and standard error of the mean were calculated in experiments containing multiple data points. […]
Using flow cytometry, forward- and side-channels were set to analyze particles using 0.5-, 0.9-, and 3.0-μm latex beads for calibration as previously described (FIG. 22A). […] To enumerate NDMPs, neutrophil and NDMP mixture were analyzed with the neutrophil-specific marker, Ly6G, and the apoptosis marker, annexin V. Vesicles within the 0.3-1.0 μm range that expressed both Ly6G and phosphatidylserine were identified as NDMPs. […]

[1] = tested on: peritoneal cells isolated from septic mice; assay: In vitro NDMP generation by peritoneal cells isolated from septic (CLP) mice; format: cell-based
Experimental: Experimental Protocol. Peritoneal lavage cells from mice made septic by cecal ligation and puncture were isolated. The cells were then incubated with or without lipopolysaccharide (hereinafter “LPS”, 100 ng/mL) for […]. MPs from these cultures were then isolated, quantified by bicinchoninic acid assay (hereinafter, “BCA”), and analyzed by fluorescence-activated cell sorting (hereinafter “FACS”).
Experimental Protocol. Peritoneal cells were isolated from septic mice 24 H after CLP. The isolated peritoneal cells were incubated with PBS or 100 ng/mL LPS for 24 H. Samples were analyzed using LSR II flow cytometer and FACS Diva software (BD Biosciences). As shown in FIG. 17(A), latex beads of a predetermined size were used to set the forward and side scatter voltages to best distinguish particles ranging from […].
Experimental Protocol. Signaling intermediates required for NDMP formation are largely unexplored. cAMP was targeted as a potential signaling mechanism involved in NDMP formation. Peritoneal cells were isolated 24 H after CLP surgeries. […] After 24 H, NDMPs were enumerated and characterized by flow cytometry.

Cl.O=S(=O)(c1cccc2c(I)cccc12)N1CCCNCC1 [ML7]
decrease in NDMP generation when compared to cells cultured without inhibitor (peritoneal cells; 24 H culture): 75%

O=C(Nc1ncnc2c1ncn2[C@@H]1O[C@@H]2COP(=O)(O)OC2C1O)c1ccccc1 (stereo in doubt) [6-Bnz-cAMP]
NDMP numbers compared to cells cultured without agent (peritoneal cells): inhibited NDMP formation

CCCCC[C@H](O)/C=C/[C@H]1[C@H](O)CC(=O)[C@@H]1C/C=C\CCCC(=O)O [PGE2, Prostaglandin E2]
NDMP numbers compared to cells cultured without agent (peritoneal cells): decrease in the total number of NDMPs

thioglycolate [3% TGA]
neutrophil recruitment and NDMP generation/accumulation in the peritoneum (C57BL/6 mice): greatest number of low endotoxin NDMPs
neutrophil recruitment and NDMP generation/accumulation in the peritoneum (C57BL/6 mice; listed as TGA): resulted in neutrophil recruitment and NDMP generation; also recorded: robust accumulation of NDMPs
# NDMPs (C57BL/6 mice): 35.1 ×10^3
# Neuts (C57BL/6 mice): 6.9 ×10^6

C[C@@H](N)[C@H]1CC[C@H](C(=O)Nc2ccncc2)CC1 [Y27632]
NDMP numbers compared to cells cultured without agent (peritoneal cells): decrease in the total number of NDMPs

Cl.Cl.O=S(=O)(NCCNC/C=C/c1ccc(Br)cc1)c1cccc2cnccc12 [H89]
NDMP numbers compared to cells cultured without agent (peritoneal cells): did not

COC(=O)CC[C@H](NC(=O)[C@H](CC(C)C)NC(=O)OCc1ccccc1)C(=O)N[C@@H](Cc1cnc[nH]1)C(=O)N[C@@H](CC(=O)OC)C(=O)CF [Z-LEHD-FMK] (Cbz-LE(OMe)HD(OMe)-CH2F)
NDMP generation compared to cells cultured without inhibitor (peritoneal cells; Z-LEHD-FMK 30 μM, 24 H culture): no significant difference

peptidoglycan [PepG]
neutrophil recruitment and NDMP generation/accumulation in the peritoneum (C57BL/6 mice): resulted in neutrophil recruitment and NDMP generation
# NDMPs (C57BL/6 mice): 3.0 ×10^3
# Neuts (C57BL/6 mice): 2.0 ×10^6

CC(C)(C)c1ccc(S(=O)(=O)/C=C/C#N)cc1 [BAY 11-7085]
NDMP generation after activation of TNFr1, TNFr2 or both (Mouse neutrophils; WT or TNFr1−/− neutrophils, 25 ng/mL rmTNF-α or rhTNF-α, 20 μM BAY 11-7085, 1 h): completely abrogates NDMP generation

COC(=O)C[C@H](NC(=O)[C@H](C)NC(=O)[C@@H](NC(=O)OCc1ccccc1)C(C)C)C(=O)CF [Z-VAD-FMK] (Cbz-Val-Ala-Asp(OMe)-CH2F)
decrease in NDMP generation when compared to cells cultured without inhibitor (peritoneal cells; 24 H culture): 37%

CO[C@@H]1[C@@H]2OP(=O)(O)OC[C@H]2O[C@H]1n1c(Sc2ccc(Cl)cc2)nc2c(N)ncnc21 [EPAC, 8-CPT-2Me-cAMP]
NDMP numbers compared to cells cultured without agent (peritoneal cells): did not affect NDMP numbers

lipopolysaccharide [LPS]
NDMP formation from peritoneal cells ([1]; LPS 100 ng/mL vs PBS, 24 H, cells isolated 24 H after CLP): enhance NDMP formation
increase in NDMPs from LPS-treated cells compared to spontaneous NDMP generation ([1]; LPS 100 ng/mL, 18 H, peritoneal lavage cells of CLP mice): ~60%
neutrophil recruitment and NDMP generation/accumulation in the peritoneum (C57BL/6 mice): resulted in neutrophil recruitment and NDMP generation
# NDMPs (C57BL/6 mice): 2.4 ×10^3
# Neuts (C57BL/6 mice): 0.16 ×10^6

CC[C@H](C)[C@H](NC(=O)OCc1ccccc1)C(=O)N[C@@H](CCC(=O)OC)C(=O)N[C@H](C(=O)N[C@@H](CC(=O)OC)C(=O)CF)[C@@H](C)O [Z-IETD-FMK] (Cbz-IE(OMe)TD(OMe)-CH2F)
decrease in NDMP generation when compared to cells cultured without inhibitor (peritoneal cells; 24 H culture): 37%
NDMPs after TNF-α plus caspase 8 inhibitor vs TNF-α alone (Mouse neutrophils; 30 μM Z-IETD-FMK, 1 h, listed as Caspase 8 inhibitor): sharply decreased but not entirely eliminated
NDMPs after TNF-α plus caspase 8 inhibitor vs TNF-α alone (Mouse neutrophils; 30 μM Z-IETD-FMK, 1 h, listed as caspase 8 inhibitor): significant decrease in NDMPs
microparticle generation after TNF-α plus caspase 8 inhibitor, only TNFr2 activated (Mouse neutrophils; neutrophils from TNFr1−/− mice, 25 ng/mL rmTNF-α, 30 μM Z-IETD-FMK, 1 h, listed as Caspase 8 inhibitor): did not alter NDMP numbers; also recorded: no decrease in microparticle generation
